Measured values: ChEMBL document CHEMBL3763146 (J Med Chem, 2016)
One block for each compound: values may come before it.

Columns and labels:
[1] = Stability in rat plasma assessed as parent compound remaining at 24 hrs by LC-MS analysis; format: ADME, cell-free; conditions: read-out: Stability
[2] = molecular target: T1, Beta-3 adrenergic receptor (Homo sapiens, UniProt P13945); test: Agonist activity at human beta3 adrenergic receptor expressed in CHO cells assessed as accumulation of cAMP after 30 mins by TR-FRET assay; format: functional, cell-based
Target sequence in this assay (P13945 whole entry): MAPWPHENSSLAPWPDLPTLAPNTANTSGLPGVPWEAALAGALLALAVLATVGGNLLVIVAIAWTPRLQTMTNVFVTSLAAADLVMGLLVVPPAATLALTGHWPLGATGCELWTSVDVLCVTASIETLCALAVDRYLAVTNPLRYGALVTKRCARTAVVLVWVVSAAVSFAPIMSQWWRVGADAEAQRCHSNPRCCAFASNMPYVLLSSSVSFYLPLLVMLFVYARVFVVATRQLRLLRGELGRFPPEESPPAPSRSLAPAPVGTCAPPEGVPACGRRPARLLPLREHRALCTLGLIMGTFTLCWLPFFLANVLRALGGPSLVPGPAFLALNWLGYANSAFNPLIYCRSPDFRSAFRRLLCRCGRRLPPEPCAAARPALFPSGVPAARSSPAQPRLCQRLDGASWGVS

[3] = Intrinsic clearance in dog liver microsomes; format: ADME, Canis lupus familiaris; conditions: read-out: CLH
[4] = molecular target: Beta-1 adrenergic receptor (Homo sapiens, UniProt P08588)
Description: Displacement of [125]I-cyanopindolol from recombinant human beta1 adrenergic receptor after 1 hr by scintillation counting method

Canis familiaris [5] = test: Dose normalized total AUC in dog at 2 mg/kg, po; format: ADME, organism-based, Canis lupus familiaris; conditions: in vivo
[6] = Induction of phospholidosis in human HepG2 cells incubated overnight by […] in presence of fluorescent labeled phospholipid probe NBD-PE; format: cell-based; conditions: read-out: A50
[7] = Oral bioavailability in rat at 2 mg/kg; format: ADME, organism-based; conditions: in vivo
[8] = Intrinsic clearance in human liver microsomes; format: ADME; conditions: read-out: CLH
[9] = Half life in dog at 0.5 mg/kg, iv or 2 mg/kg, po; format: ADME, organism-based, Canis lupus familiaris; conditions: in vivo
[10] = Oral bioavailability in dog at 2 mg/kg; format: ADME, organism-based, Canis lupus familiaris; conditions: in vivo
[11] = molecular target: T1, Beta-3 adrenergic receptor; test: Agonist activity at human beta3 adrenergic receptor expressed in CHO cells assessed as accumulation of cAMP after 30 mins by TR-FRET assay relative to (R)-(-)-isoproterenol; format: functional, cell-based
Target sequence in this assay (P13945 whole entry, looked up): as the sequence (P13945 whole entry) above

[12] = molecular target: Sodium-dependent serotonin transporter (Homo sapiens, UniProt P31645); test: Inhibition of human SERT expressed in HEK293 cells preincubated for 30 mins followed by fluorescent substrate addition measured after 30 mins by plate reader analysis; format: cell-based
[13] = Stability in dog plasma assessed as parent compound remaining at 24 hrs by LC-MS analysis; format: ADME, cell-free, Canis lupus familiaris; conditions: read-out: Stability
[14] = Intrinsic clearance in rat liver microsomes; format: ADME; conditions: read-out: CLH
[15] = Plasma clearance in rat at 1 mg/kg, iv or 2 mg/kg, po; format: ADME, organism-based
[16] = Plasma clearance in dog at 0.5 mg/kg, iv or 2 mg/kg, po; format: ADME, organism-based, Canis lupus familiaris
[17] = Stability in human plasma assessed as parent compound remaining at 24 hrs by LC-MS analysis; format: ADME, cell-free; conditions: read-out: Stability
Rattus norvegicus [18] = test: Dose normalized total AUC in rat at 2 mg/kg, po; format: ADME, organism-based; conditions: in vivo
[19] = Intrinsic clearance in rhesus monkey liver microsomes; format: ADME, Macaca mulatta; conditions: read-out: CLH
[20] = molecular target: Beta-2 adrenergic receptor (Homo sapiens, UniProt P07550)
Description: Displacement of [125]I-cyanopindolol from human recombinant beta2 adrenergic receptor after 1 hr by scintillation counting method

[21] = Half life in rat at 1 mg/kg, iv or 2 mg/kg, po; format: ADME, organism-based; conditions: in vivo
[22] = molecular target: Voltage-dependent L-type calcium channel subunit alpha-1C (Homo sapiens, UniProt Q13936); test: Displacement of [3H]-diltiazem from human Cav1.2 channel
[23] = molecular target: Sodium channel protein type 2 subunit alpha (Homo sapiens, UniProt Q99250); test: Inhibition of human Nav1.2 channel expressed in Xenopus oocytes by two-intracellular microelectrode voltage clamp method; format: cell-based
[24] = molecular target: Sodium-dependent dopamine transporter (Homo sapiens, UniProt Q01959); test: Inhibition of human dopamine transporter
[25] = Stability in rhesus monkey plasma assessed as parent compound remaining at 24 hrs by LC-MS analysis; format: ADME, cell-free, Macaca mulatta; conditions: read-out: Stability
Rhesus monkey [26] = test: Unbound clearance in rhesus monkey at 0.5 mg/kg, iv or 2 mg/kg, po; format: ADME, organism-based, Macaca mulatta; conditions: in vivo
[27] = Fraction unbound in rat at 1 mg/kg, iv or 2 mg/kg, po; format: ADME, organism-based; conditions: in vivo
Rattus norvegicus [28] = test: Unbound clearance in rat at 1 mg/kg, iv or 2 mg/kg, po; format: ADME, organism-based; conditions: in vivo
[29] = molecular target: Beta-3 adrenergic receptor (Macaca mulatta) (UniProt Q28524); test: Agonist activity at rhesus monkey beta3 adrenergic receptor expressed in CHO cells assessed as accumulation of cAMP after 30 mins by TR-FRET assay in presence of 40% serum relative to (R)-(-)-isoproterenol; format: functional, cell-based
[30] = molecular target: Beta-3 adrenergic receptor (Macaca mulatta) (UniProt Q28524); test: Agonist activity at rhesus monkey beta3 adrenergic receptor expressed in CHO cells assessed as accumulation of cAMP after 30 mins by TR-FRET assay relative to (R)-(-)-isoproterenol; format: functional, cell-based
[31] = molecular target: Beta-3 adrenergic receptor (Canis lupus familiaris, UniProt O02662); test: Agonist activity at dog beta3 adrenergic receptor expressed in CHO cells assessed as accumulation of cAMP after 30 mins by TR-FRET assay; format: functional, cell-based
[32] = molecular target: Voltage-gated inwardly rectifying potassium channel KCNH2 (Homo sapiens, UniProt Q12809); test: Binding affinity to human ERG channel
Canis familiaris [33] = test: Unbound clearance in dog at 0.5 mg/kg, iv or 2 mg/kg, po; format: ADME, organism-based, Canis lupus familiaris; conditions: in vivo
[34] = molecular target: T1, Beta-3 adrenergic receptor; test: Agonist activity at human adrenergic beta3 receptor expressed in CHO cells assessed as accumulation of cAMP after 30 mins by TR-FRET assay in presence of 40% serum relative to (R)-(-)-isoproterenol; format: functional, cell-based
Target sequence in this assay (P13945 whole entry, looked up): as the sequence (P13945 whole entry) above

Rhesus monkey [35] = test: Dose normalized total AUC in rhesus monkey at 2 mg/kg, po; format: ADME, organism-based, Macaca mulatta; conditions: in vivo
[36] = Distribution coefficient, logD of the compound at pH 7.4; format: physicochemical; conditions: octanol/water
[37] = molecular target: T2, Beta-3 adrenergic receptor (Macaca mulatta, UniProt Q28524); test: Agonist activity at rhesus monkey beta3 adrenergic receptor expressed in CHO cells assessed as accumulation of cAMP after 30 mins by TR-FRET assay in presence of 40% serum; format: functional, cell-based
[38] = Fraction unbound in dog at 0.5 mg/kg, iv or 2 mg/kg, po; format: ADME, organism-based, Canis lupus familiaris; conditions: in vivo
[39] = molecular target: Beta-3 adrenergic receptor (Rattus norvegicus) (UniProt P26255); test: Agonist activity at rat beta3 adrenergic receptor expressed in CHO cells assessed as accumulation of cAMP after 30 mins by TR-FRET assay relative to (R)-(-)-isoproterenol; format: functional, cell-based
[40] = molecular target: T2, Beta-3 adrenergic receptor; test: Agonist activity at rhesus monkey beta3 adrenergic receptor expressed in CHO cells assessed as accumulation of cAMP after 30 mins by TR-FRET assay; format: functional, cell-based
Cytochrome P450 2D6 = Cytochrome P450 2D6 (Homo sapiens, UniProt P10635); test: Inhibition of CYP2D6 in human liver microsomes assessed as dextraomethorphan O-demethylation; format: ADME
[41] = Fraction unbound in rhesus monkey at 0.5 mg/kg, iv or 2 mg/kg, po; format: ADME, organism-based, Macaca mulatta; conditions: in vivo
[42] = Solubility of the compound in buffer at pH >= […]; format: physicochemical
[43] = molecular target: Beta-3 adrenergic receptor (Rattus norvegicus, UniProt P26255); test: Agonist activity at rat beta3 adrenergic receptor expressed in CHO cells assessed as accumulation of cAMP after 30 mins by TR-FRET assay; format: functional, cell-based
[44] = Oral bioavailability in rhesus monkey at 2 mg/kg; format: ADME, organism-based, Macaca mulatta; conditions: in vivo
Cytochrome P450 3A4 = Cytochrome P450 3A4 (Homo sapiens, UniProt P08684); test: Inhibition of CYP3A4 in human liver microsomes assessed as testosterone 6beta-hydroxylation; format: ADME
Cytochrome P450 2C9 = Cytochrome P450 2C9 (Homo sapiens, UniProt P11712); test: Inhibition of CYP2C9 in human liver microsomes assessed as diclofenac alpha'-hydroxylation; format: ADME
Sequence of Cytochrome P450 2C9 (P11712 whole entry): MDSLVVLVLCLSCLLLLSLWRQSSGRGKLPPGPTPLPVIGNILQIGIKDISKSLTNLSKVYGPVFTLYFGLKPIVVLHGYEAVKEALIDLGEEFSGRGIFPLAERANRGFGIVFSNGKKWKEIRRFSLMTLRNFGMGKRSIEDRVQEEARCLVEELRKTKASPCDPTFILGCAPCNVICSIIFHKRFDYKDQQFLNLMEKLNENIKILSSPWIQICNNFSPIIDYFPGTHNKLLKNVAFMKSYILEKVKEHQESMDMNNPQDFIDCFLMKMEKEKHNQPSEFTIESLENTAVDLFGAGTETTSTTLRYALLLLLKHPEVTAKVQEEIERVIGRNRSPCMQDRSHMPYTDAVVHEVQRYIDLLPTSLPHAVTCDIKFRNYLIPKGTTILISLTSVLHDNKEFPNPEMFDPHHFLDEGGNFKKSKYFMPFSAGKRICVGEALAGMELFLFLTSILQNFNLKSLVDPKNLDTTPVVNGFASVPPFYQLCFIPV

Sequence of Voltage-dependent L-type calcium channel subunit alpha-1C (Q13936 whole entry): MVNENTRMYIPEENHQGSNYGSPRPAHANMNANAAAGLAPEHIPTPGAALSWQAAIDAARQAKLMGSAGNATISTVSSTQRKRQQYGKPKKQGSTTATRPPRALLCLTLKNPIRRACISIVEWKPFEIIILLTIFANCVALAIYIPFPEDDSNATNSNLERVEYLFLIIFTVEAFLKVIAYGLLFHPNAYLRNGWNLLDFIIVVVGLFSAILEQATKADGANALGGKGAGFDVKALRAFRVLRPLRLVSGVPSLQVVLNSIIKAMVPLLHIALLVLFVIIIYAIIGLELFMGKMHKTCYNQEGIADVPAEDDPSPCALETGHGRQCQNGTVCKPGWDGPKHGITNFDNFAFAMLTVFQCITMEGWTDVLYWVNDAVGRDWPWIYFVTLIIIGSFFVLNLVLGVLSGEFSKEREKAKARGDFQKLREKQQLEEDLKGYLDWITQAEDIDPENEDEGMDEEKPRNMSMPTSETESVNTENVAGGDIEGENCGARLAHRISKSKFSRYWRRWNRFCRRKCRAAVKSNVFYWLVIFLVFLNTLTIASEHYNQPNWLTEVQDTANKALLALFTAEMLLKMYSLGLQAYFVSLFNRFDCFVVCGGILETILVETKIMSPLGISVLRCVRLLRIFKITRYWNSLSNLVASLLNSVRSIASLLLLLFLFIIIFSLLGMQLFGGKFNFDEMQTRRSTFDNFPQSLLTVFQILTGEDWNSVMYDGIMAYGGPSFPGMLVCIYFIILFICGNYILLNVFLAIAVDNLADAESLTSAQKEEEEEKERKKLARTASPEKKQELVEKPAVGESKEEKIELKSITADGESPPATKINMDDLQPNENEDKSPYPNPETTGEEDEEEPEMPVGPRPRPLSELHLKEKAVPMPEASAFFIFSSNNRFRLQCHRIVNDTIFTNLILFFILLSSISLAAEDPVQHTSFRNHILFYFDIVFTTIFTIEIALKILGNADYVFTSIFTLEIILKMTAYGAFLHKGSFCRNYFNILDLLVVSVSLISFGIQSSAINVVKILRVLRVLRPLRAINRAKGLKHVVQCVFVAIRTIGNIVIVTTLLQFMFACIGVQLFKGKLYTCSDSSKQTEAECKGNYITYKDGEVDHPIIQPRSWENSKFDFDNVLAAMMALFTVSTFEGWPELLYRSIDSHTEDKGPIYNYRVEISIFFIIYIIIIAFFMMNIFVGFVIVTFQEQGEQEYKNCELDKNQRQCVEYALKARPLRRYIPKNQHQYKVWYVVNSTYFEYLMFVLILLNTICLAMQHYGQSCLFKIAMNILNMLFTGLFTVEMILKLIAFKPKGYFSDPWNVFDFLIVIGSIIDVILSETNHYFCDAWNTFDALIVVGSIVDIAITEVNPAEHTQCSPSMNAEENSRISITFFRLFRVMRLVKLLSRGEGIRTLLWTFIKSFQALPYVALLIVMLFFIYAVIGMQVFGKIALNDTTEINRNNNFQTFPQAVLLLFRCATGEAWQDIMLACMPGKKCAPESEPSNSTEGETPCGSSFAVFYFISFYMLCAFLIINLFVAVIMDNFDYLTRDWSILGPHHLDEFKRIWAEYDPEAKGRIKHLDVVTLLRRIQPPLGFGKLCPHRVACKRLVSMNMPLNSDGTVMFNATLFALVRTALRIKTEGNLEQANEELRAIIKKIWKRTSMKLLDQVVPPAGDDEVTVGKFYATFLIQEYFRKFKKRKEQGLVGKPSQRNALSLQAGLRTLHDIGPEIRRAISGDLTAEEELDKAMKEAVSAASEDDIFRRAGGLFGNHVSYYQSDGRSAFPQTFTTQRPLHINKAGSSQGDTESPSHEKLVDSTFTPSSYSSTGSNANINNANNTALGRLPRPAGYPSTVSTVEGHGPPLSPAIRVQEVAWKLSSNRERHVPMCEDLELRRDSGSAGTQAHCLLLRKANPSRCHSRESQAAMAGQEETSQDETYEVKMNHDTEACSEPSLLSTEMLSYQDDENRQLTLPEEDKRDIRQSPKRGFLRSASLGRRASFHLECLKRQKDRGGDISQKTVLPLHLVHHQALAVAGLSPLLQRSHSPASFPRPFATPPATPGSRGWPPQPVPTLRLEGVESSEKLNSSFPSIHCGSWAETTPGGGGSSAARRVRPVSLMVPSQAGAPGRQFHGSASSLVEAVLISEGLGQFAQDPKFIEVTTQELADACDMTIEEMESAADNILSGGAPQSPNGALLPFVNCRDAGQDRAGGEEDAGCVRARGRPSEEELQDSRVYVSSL
Sequence of Sodium-dependent serotonin transporter (P31645 whole entry): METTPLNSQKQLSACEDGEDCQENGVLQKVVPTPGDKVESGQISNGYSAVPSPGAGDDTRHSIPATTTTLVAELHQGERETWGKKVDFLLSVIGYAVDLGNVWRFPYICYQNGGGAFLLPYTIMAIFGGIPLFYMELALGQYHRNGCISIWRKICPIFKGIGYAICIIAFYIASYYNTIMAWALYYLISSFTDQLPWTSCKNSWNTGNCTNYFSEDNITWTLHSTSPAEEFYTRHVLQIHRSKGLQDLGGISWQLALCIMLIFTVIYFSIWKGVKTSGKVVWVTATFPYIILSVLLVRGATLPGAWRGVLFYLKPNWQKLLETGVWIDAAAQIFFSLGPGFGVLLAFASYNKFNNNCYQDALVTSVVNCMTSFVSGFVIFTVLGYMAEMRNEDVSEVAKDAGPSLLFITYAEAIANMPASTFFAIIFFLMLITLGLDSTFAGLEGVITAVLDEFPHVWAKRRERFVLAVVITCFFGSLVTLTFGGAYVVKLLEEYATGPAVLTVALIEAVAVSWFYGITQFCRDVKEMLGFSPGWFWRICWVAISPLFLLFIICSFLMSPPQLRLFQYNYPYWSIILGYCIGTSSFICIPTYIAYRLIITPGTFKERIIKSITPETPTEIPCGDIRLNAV
T2 sequence (Q28524 whole entry): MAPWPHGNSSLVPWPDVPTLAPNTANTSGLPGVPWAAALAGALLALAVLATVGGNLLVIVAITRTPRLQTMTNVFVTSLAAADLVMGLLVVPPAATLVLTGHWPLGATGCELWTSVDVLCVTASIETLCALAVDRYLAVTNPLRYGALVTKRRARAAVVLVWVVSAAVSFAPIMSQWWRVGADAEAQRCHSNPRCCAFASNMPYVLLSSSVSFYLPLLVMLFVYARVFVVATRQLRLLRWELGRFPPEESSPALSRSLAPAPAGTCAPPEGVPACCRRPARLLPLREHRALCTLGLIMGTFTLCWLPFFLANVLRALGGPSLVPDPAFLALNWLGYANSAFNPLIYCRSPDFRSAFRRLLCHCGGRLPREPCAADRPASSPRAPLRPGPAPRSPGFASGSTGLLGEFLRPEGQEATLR
Sequence of Beta-3 adrenergic receptor (Macaca mulatta) (Q28524 whole entry): as above
Sequence of Beta-2 adrenergic receptor (P07550 whole entry): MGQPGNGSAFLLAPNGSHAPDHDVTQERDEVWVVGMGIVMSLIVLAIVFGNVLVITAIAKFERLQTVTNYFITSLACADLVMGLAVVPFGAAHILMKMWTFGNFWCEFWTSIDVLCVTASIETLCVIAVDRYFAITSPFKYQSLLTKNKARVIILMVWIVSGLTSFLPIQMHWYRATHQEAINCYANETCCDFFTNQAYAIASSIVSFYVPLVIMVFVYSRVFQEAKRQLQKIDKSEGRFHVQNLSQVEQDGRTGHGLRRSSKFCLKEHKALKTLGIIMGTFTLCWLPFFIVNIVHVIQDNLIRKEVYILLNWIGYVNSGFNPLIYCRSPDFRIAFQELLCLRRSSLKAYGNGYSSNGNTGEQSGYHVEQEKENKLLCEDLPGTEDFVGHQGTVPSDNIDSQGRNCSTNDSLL

- remaining at 24 h [1]: 92%
- EC50 [2]: 0.00062 µM
- CLint scaled [3]: 13 mL/min/kg
- IC50 [4]: > 20 µM
- AUC/dose (Canis familiaris [5]): 1500 nM·h/mg/kg
- AC50 [6]: 33 µM
- bioavailability [7]: 21%
- CLint scaled [8]: 19 mL/min/kg
- half-life [9]: 6 h
- bioavailability [10]: 100%
- max activation [11]: 94%
- IC50 [12]: 7.1 µM
- remaining at 24 h [13]: 92%
- CLint scaled [14]: 29 mL/min/kg
- clearance [15]: 77 mL/min/kg
- clearance [16]: 26 mL/min/kg
- remaining at 24 h [17]: 100%
- AUC/dose (Rattus norvegicus [18]): 110 nM·h/mg/kg
- CLint scaled [19]: 137 mL/min/kg
- IC50 [20]: > 20 µM
- half-life [21]: 3 h
- IC50 [23]: > 30 µM
- IC50 [24]: 4.8 µM
- remaining at 24 h [25]: 72%
Structure (SMILES): O=C(Nc1ccc(C[C@@H]2CC[C@H]([C@H](O)c3ccccc3)N2)cc1)[C@@H]1CCc2cccc(=O)n21
- IC50 [22]: > 30 µM

- CL free (Rhesus monkey [26]): > 950 mL/min/kg
- fraction unbound [27]: ≤ 0.02
- CL free (Rattus norvegicus [28]): > 3100 mL/min/kg
- max activation [29]: 17%
- AUC/dose (Canis familiaris [5]): 290 nM·h/mg/kg
- max activation [30]: 81%
- EC50 [31]: 0.025 µM
- AC50 [6]: 0.56 µM
- CL free (Canis familiaris [33]): > 1000 mL/min/kg
- bioavailability [7]: 17%
- max activation [34]: 106%
- AUC/dose (Rhesus monkey [35]): 50 nM·h/mg/kg
- bioavailability [10]: 27%
- max activation [11]: 93%
- IC50 [12]: 5 µM
- logD [36]: 4.7
- EC50 [37]: 0.017 µM
- fraction unbound [38]: ≤ 0.02
- max activation [39]: 17%
- EC50 [40]: 0.00043 µM
- IC50 (Cytochrome P450 2D6): 11 µM
- fraction unbound [41]: ≤ 0.02
- solubility [42]: < 100 µg/mL
- EC50 [43]: 3.4 µM
- AUC/dose (Rattus norvegicus [18]): 70 nM·h/mg/kg
- bioavailability [44]: 4%
- IC50 (Cytochrome P450 3A4): 9.3 µM
- IC50 (Cytochrome P450 2C9): 24 µM
Structure (SMILES): O=S(=O)(Nc1ccc(CCNC[C@H](O)c2cccnc2)cc1)c1ccc(-c2nc(-c3ccc(C(F)(F)F)cc3)cs2)cc1
- IC50 [32]: 0.22 µM
- IC50 [22]: 1.7 µM
